The source of these data is patent US20070202486A1, “Method Of Assaying Substance Capable Of Changing Mitochondrial Membrane Potential” (Mitsubishi Pharma Corporation, priority 2004, published 2007).

The test system of experiment [1] is Griardi cells. The following applies: 3 hr low oxygen with metabolism inhibitor, then 1 hr normal medium; cited from earlier work.
In experiment [2] the test system is Griardi cells. The following applies: JC-1, flow cytometry; cited from earlier work. A general note: Flow cytometry measures light scatter and fluorescence of single cells or particles in a stream.
Experiment [3] concerns Girardi cells. Description: Mitochondrial depolarization inhibition, JC-1 fluorescence ratio, ouabain/KCl-induced depolarization (Example 1). The class given is cell-based, human. The following applies: 1 mM ouabain + 60 mM KCl, 2 hr. As for the experimental part: First of all, Girardi cells are seeded on a plate usable for an optical measurement method, and cultured in a normal medium (MEM medium supplemented with additives, such as non-essential amino acid, fetal bovine serum and the like). Then, the medium is changed to a normal medium containing JC-1 to allow incorporation of JC-1 into the cell, the medium is changed to a normal medium containing a test substance, and the cells are cultured. Then, a depolarization-inducing medium is used (normal medium containing ouabain and KCl; in the evaluation method of the present invention, ouabain is used at a concentration of 0.1 μM-3 mM, and KCl is used at a concentration of 20 mM-90 mM). The test substance may be added along with or after addition of a depolarization-inducing medium following incorporation of JC-1 into the cell. After addition of the depolarization-inducing medium, the culture time can be 1-24 hr. Thereafter, the fluorescence of JC-1 monomer and the fluorescence of J-aggregate are measured on a fluorescence plate reader (capable of excitation at around 488-490 nm, which is the excitation wavelength of JC-1, and capable of fluorescence detection around 527 nm, which is the fluorescence wavelength peak of JC-1 monomer and around 590-600 nm, which is the fluorescence wavelength of J-aggregate), and the fluorescence intensity ratio (monomer fluorescence intensity/J-aggregate fluorescence intensity) is calculated.
Girardi cells suspended in a normal medium [(MEM (GIBCO 11095-098) supplemented with 1% non-essential amino acid (MEM Non-Essential Amino Acids Solution 10 mM 100× GIBCO 11140-050), and 10% fetal bovine serum (BIOFLUIDS DIVISION Lot No. 302030))] were seeded to a 96-well clear bottom black plate (MATRIX MT4940) at 200 μL/well and cultured.
JC-1 (Molecular Probes T-3168, 1 mg/mL DMSO solution) was added to a phenol red-free normal medium [MEM (GIBCO 51200-038) supplemented with 1% non-essential amino acid (MEM Non-Essential Amino Acids Solution 10 mM 100× GIBCO 11140-050), 1% L-glutamine (L-Glutamine-200 mM 100×: GIBCO 25030-149) and 10% fetal bovine serum (BIOFLUIDS DIVISION: Lot No. 302030)] at 10 μL/mL, the mixture was stirred with a vortex mixer and centrifuged at 3000 rpm for 1 min and the supernatant was filtered through a syringe filter (0.22 μm, MILLIPORE). The medium in the 96-well plate was removed and the JC-1 solution was dispensed to a cell-seeded well at 50 μL/well. […]
After induction of depolarization, the plate was set on a fluorescence plate reader (TECAN, SpectraFluor) heated to 37° C., and the J-aggregate fluorescence was measured at 595 nm using an excitation wavelength of 485 nm. Then, the monomer fluorescence was measured at 535 nm using an excitation wavelength of 485 nm. […]

Structures are written as SMILES.

In the case of `Nc1ncnc2c1ncn2[C@@H]1O[C@H](CO)[C@@H](O)[C@H]1O` [adenosine], in experiment [1], the apoptosis result was “strongly inhibited apoptosis”. For the molecule `N#CC(C#N)=NNc1cccc(Cl)c1` [CCCP], the “mitochondrial membrane potential (red fluorescence intensity of JC-1)” value in experiment [2] is “decreased fluorescence intensity and depolarization of mitochondria were observed”. For `CC1(C)Oc2ccc(C#N)cc2[C@H](N(Cc2ncc[nH]2)c2ccc(Cl)cc2)[C@H]1O` [BMS-191095], in experiment [3], the “mitochondrial depolarization inhibitory action (fluorescence intensity ratio monomer/J-aggregate)” value is given as “mitochondrial depolarization inhibitory action”. Turning to `COc1ccc([C@@H]2Sc3ccccc3N(CCN(C)C)C(=O)[C@@H]2OC(C)=O)cc1.Cl` [diltiazem, diltiazem hydrochloride], the “mitochondrial depolarization inhibitory action (fluorescence intensity ratio monomer/J-aggregate)” value in experiment [3] is “did not prevent mitochondrial depolarization”. Still for that read-out and setting: to `CC1=NS(=O)(=O)c2cc(Cl)ccc2N1` [diazoxide] belongs “mitochondrial depolarization inhibitory action”; to `CC1(C)Oc2ccc(C#N)cc2[C@@H](N2CCCC2=O)[C@@H]1O` [levcromakalim], “did not prevent mitochondrial depolarization”.
